Reference: patent publication US12029748B2, “Synergistic composition for maintenance of healthy balance of microflora” (KIMBERLY-CLARK WORLDWIDE, INC., priority 2017, dated 2024)
Where a SMILES comes first, the peptide text is derived from it.

Columns and labels:
[1] = Initial pH screening of the composition; type: physicochemical; conditions: for I pH (initial pH), 0.10%: nitrogen compound 0.10 wt/vol % with 1.0 wt/vol % α methyl-D glucoside in medium; for I pH (initial pH), 0.50%: nitrogen compound 0.50 wt/vol % with 1.0 wt/vol % α methyl-D glucoside in medium; for I pH (initial pH), 1.00%: nitrogen compound 1.00 wt/vol % with 1.0 wt/vol % α methyl-D glucoside in medium
Description: Each composition in Table 1 went through initial screening measures of solubility and initial pH (“I pH”). […] When a specific concentration of a nitrogen containing compound was insoluble, the initial and final pH (“F pH”) of the combined composition was not measured and accordingly are each marked as “NM.” Additionally, initial pH of the composition was checked as a screening measure. The initial pH was marked as either Low (“L”), High (“H”), or Pass (“P”). A Low initial pH corresponds to an initial pH being less than 5.5, a High initial pH corresponds to an initial pH being greater than 6.5, and a Pass initial pH corresponds to the pH being at or between 5.5-6.5. […] As part of the Therapeutic Effect Protocol, a final pH was also measured after the compositions that were tested against the Lactobacillus and E. coli.
(§1) All of the ingredients in Table 2 were combined and the pH was adjusted to 6.5. […] To evaluate the effect of various nitrogen containing therapeutic agents on the growth of bacteria, the LAPT-g media, prepared as described above, was supplemented with various nitrogen containing compound therapeutic agents to a final test concentration between 0.1 and 1.0%. As initial screening measures, solubility and initial pH of each composition were checked. If a specific composition was insoluble (as detected by visual indication of precipitates or turbidity), then no further therapeutic efficacy testing was undertaken on that composition. Additionally, if the initial pH of the composition was below 5.5 (“Low”) or was above 6.5 (“High”), then no further therapeutic efficacy testing was undertaken on that composition.

L. crispatus and E. coli = test: Therapeutic Effect Protocol: L. crispatus / E. coli co-culture, ratio after 36 hours; type: cell-based, Lactobacillus crispatus; E. coli; conditions: for Therapeutic Efficacy Results (Lactobacillus/E. coli) 0.10%: nitrogen compound 0.10 wt/vol % with 1.0 wt/vol % α methyl-D glucoside (10:1); for Therapeutic Efficacy Results (Lactobacillus/E. coli) 0.10% / Therapeutic Efficacy Results (Lactobacillus/E. coli) 0.50% / Therapeutic Efficacy Results (Lactobacillus/E. coli) 1.00%: 36 hours anaerobic co-culture, 37° C.; for Therapeutic Efficacy Results (Lactobacillus/E. coli) 0.50%: nitrogen compound 0.50 wt/vol % with 1.0 wt/vol % α methyl-D glucoside (2:1); for Therapeutic Efficacy Results (Lactobacillus/E. coli) 1.00%: nitrogen compound 1.00 wt/vol % with 1.0 wt/vol % α methyl-D glucoside (1:1); for Therapeutic effect (ratio of Lactobacillus to E. coli greater than 2) at each concentration tested / Therapeutic effect when ratio α methyl-D glucoside : nitrogen compound is less than 2:1 (1:1) / Therapeutic effect when ratio α methyl-D glucoside : nitrogen compound is at least about 2:1, but not at 1:1 / Therapeutic effect at ratio 2:1 and 10:1, but not at 1:1: with α methyl-D glucoside; for Therapeutic effect (ratio of Lactobacillus to E. coli greater than 2) at each concentration tested: nitrogen compound 1 wt/vol %, 0.5 wt/vol % and 0.1 wt/vol %; for Therapeutic effect when ratio α methyl-D glucoside : nitrogen compound is less than 2:1 (1:1): ratio 1:1; for Therapeutic effect when ratio α methyl-D glucoside : nitrogen compound is at least about 2:1, but not at 1:1: ratio at least about 2:1, not 1:1; for Therapeutic effect at ratio 2:1 and 10:1, but not at 1:1: ratios 2:1 and 10:1, not 1:1; for Therapeutic effect of other saccharides: saccharide other than α methyl-D glucoside, by itself or with a nitrogen containing compound
Method: As used herein the term “therapeutic effect” refers to the ability of the compositions and formulations of the present invention to stimulate the growth of Lactobacillus relative E. coli measured according to the Therapeutic Effect Protocol described below. Generally, therapeutic effect is expressed as a ratio of Lactobacillus to E. coli and is desirably greater than about 2, more preferably greater than about 20 and more desirably greater than about 100.
The data in Table 1 was tested according to the Therapeutic Effect Protocol as described further herein. The nitrogen compounds were tested for their therapeutic efficacy at three different concentrations when combined with α methyl-D glucoside (1% wt/vol %). The concentrations of the nitrogen containing compounds that were tested were 1% wt/vol %, 0.5% wt/vol %, and 0.1% wt/vol %.
Colonies of L. crispatus and E. coli were prepared as follows. A colony of L. crispatus was transferred to 7 ml de Man, Rogosa & Sharpe (MRS) broth and incubated anaerobically (using BD GasPak EZ anaerobe container system with indicator) at 37° C. without shaking for 18-20 hours. A colony of E. coli was transferred to 5 ml Tryptic Soy Broth (TSB) and incubated aerobically (shaking at 100 rpm) at 37° C. for 18-20 hours.
Colonies were then inoculated as follows. Bacterial cultures were gently vortexed and 1 mL of each culture was transferred to a corresponding 2.0 mL micro-centrifuge tube and then centrifuged for two minutes at 14,500 rpm. The cultural supernatant was removed and the cell pellet was re-suspended in 1 mL of 0.95% (wt/vol %) saline. […] For L. crispatus, the pellet was re-suspended in 1 mL of 0.95% saline to achieve ˜10^7-10^8 cfu/mL. For E. coli, the pellet was re-suspended in 1 mL of 0.95% saline to achieve ˜10^8-10^9 cfu/mL.
Media were prepared as follows.
as §1
Five milliliters (5 mL) of each medium was transferred to a test tube in duplicates for subsequent inoculation. A master mixture of L. crispatus and E. coli, prepared as described above, was prepared in 1,000:1 ratio. Each (5 ml) test tube was inoculated with the master mixture to give 10^5-10^6 total CFU L. crispatus and 100-1,000 total CFU E. coli per tube.
To establish a negative control, one tube was vortexed and 100 μL was removed to determine the initial cell concentrations by serial dilutions and plating (2 plates per dilution). L. crispatus is selected on MRS agar plates incubated anaerobically at 37° C. for two days. E. coli is selected on TSA plates incubated aerobically at 37° C. for one day. The co-cultures were incubated in an anaerobic container with BD GasPaks at 37° C. for 36 hours.
The effect of the α methyl-D glucoside and the nitrogen containing compound therapeutic agents on the ratio of L. crispatus to E. coli was measured 36 hours after inoculation and a final pH of the test solutions was recorded. The co-culture tube was vortexed and 100 μL was removed to determine the final cell concentrations by serial dilutions and plating (2 plates per dilution). L. crispatus is selected on MRS agar plates incubated anaerobically at 37° C. for two days.

Compound | I pH (initial pH), 0.10% [1] | I pH (initial pH), 0.50% [1] | I pH (initial pH), 1.00% [1] | Therapeutic Efficacy Results (Lactobacillus/E. coli) 0.10% (L. crispatus and E. coli) | Therapeutic Efficacy Results (Lactobacillus/E. coli) 0.50% (L. crispatus and E. coli) | Therapeutic Efficacy Results (Lactobacillus/E. coli) 1.00% (L. crispatus and E. coli) | further results
CCCCCN [N-Amylamine] | H (a High initial pH corresponds to an initial pH being greater than 6.5) | H (a High initial pH corresponds to an initial pH being greater than 6.5) | H (a High initial pH corresponds to an initial pH being greater than 6.5) | – | – | – | –
C[C@@H](O)[C@H](N)C(=O)O [L-Threonine] | P (a Pass initial pH corresponds to the pH being at or between 5.5-6.5) | P (a Pass initial pH corresponds to the pH being at or between 5.5-6.5) | P (a Pass initial pH corresponds to the pH being at or between 5.5-6.5) | 0.74 | 1.13 | 0.36 | –
NC(=O)C[C@@H](N)C(=O)O [D-Asparagine] | P (a Pass initial pH corresponds to the pH being at or between 5.5-6.5) | P (a Pass initial pH corresponds to the pH being at or between 5.5-6.5) | P (a Pass initial pH corresponds to the pH being at or between 5.5-6.5) | >3410 | 6.00E+06 | 72 | Therapeutic effect (ratio of Lactobacillus to E. coli greater than 2) at each concentration tested (L. crispatus and E. coli): provided a therapeutic effect; Therapeutic effect when ratio α methyl-D glucoside : nitrogen compound is less than 2:1 (1:1) (L. crispatus and E. coli): provided a therapeutic effect
N[C@@H](CO)C(=O)O [L-Serine] | P (a Pass initial pH corresponds to the pH being at or between 5.5-6.5) | P (a Pass initial pH corresponds to the pH being at or between 5.5-6.5) | P (a Pass initial pH corresponds to the pH being at or between 5.5-6.5) | 393 | >299 | 0.45 | Therapeutic effect when ratio α methyl-D glucoside : nitrogen compound is at least about 2:1, but not at 1:1 (L. crispatus and E. coli): provided a therapeutic effect; Therapeutic effect at ratio 2:1 and 10:1, but not at 1:1 (L. crispatus and E. coli): provided a therapeutic effect
C[C@@H](N)C(=O)O [D-Alanine] | P (a Pass initial pH corresponds to the pH being at or between 5.5-6.5) | P (a Pass initial pH corresponds to the pH being at or between 5.5-6.5) | P (a Pass initial pH corresponds to the pH being at or between 5.5-6.5) | 1.10E+06 | >1.30E+04 | 60 | Therapeutic effect (ratio of Lactobacillus to E. coli greater than 2) at each concentration tested (L. crispatus and E. coli): provided a therapeutic effect; Therapeutic effect when ratio α methyl-D glucoside : nitrogen compound is less than 2:1 (1:1) (L. crispatus and E. coli): provided a therapeutic effect
N=C(N)NCCC[C@H](N)C(=O)O [L-Arginine] | – | – | – | 0.58 | – | – | –
O=C(O)[C@@H]1CCCN1 [L-Proline] | – | – | – | 1.88 | 0.55 | 1.25 | –
NCC(=O)O [Glycine] | – | – | – | 0.56 | 20.5 | 950 | –
C[C@H](N)C(=O)N[C@H](C(=O)O)[C@@H](C)O [H-Ala-Thr-OH] (H-Ala-Thr-OH) | P (a Pass initial pH corresponds to the pH being at or between 5.5-6.5) | P (a Pass initial pH corresponds to the pH being at or between 5.5-6.5) | P (a Pass initial pH corresponds to the pH being at or between 5.5-6.5) | 212 | >103 | 1.64 | Therapeutic effect when ratio α methyl-D glucoside : nitrogen compound is at least about 2:1, but not at 1:1 (L. crispatus and E. coli): provided a therapeutic effect; Therapeutic effect at ratio 2:1 and 10:1, but not at 1:1 (L. crispatus and E. coli): provided a therapeutic effect
Nc1ccn([C@@H]2O[C@H](CO)[C@@H](O)[C@H]2O)c(=O)n1 [Cytidine] | – | – | – | >103 | 3.85E+03 | 3.09 | –
OC[C@H]1O[C@H](OC[C@H]2O[C@H](OC[C@H]3O[C@H](O[C@]4(CO)O[C@H](CO)[C@@H](O)[C@@H]4O)[C@H](O)[C@@H](O)[C@@H]3O)[C@H](O)[C@@H](O)[C@H]2O)[C@H](O)[C@@H](O)[C@H]1O [stachyose] | – | – | – | – | – | – | Therapeutic effect of other saccharides (L. crispatus and E. coli): not able to provide a therapeutic effect
Ammonium Citrate | – | – | – | >260 | 4.93E−04 | 3.15E−08 | –
O=C[C@@H](O)[C@H](O)[C@H](O)CO [D-arabinose] | – | – | – | – | – | – | Therapeutic effect of other saccharides (L. crispatus and E. coli): not able to provide a therapeutic effect
N.O.O.O.O.O=P([O-])(O)O.[Na+] [Ammonium Sodium Phosphate] | – | – | – | 0.25 | – | – | –
N=C(N)NCCC[C@@H](N)C(=O)O [D-Arginine] | – | – | – | 0.35 | – | – | –
N[C@@H](CCC(=O)O)C(=O)O [L-Glutamic Acid] | – | – | – | 2.81 | – | – | –
O=C(O)CC[C@@H](C(=O)O)N1C(=O)c2ccccc2C1=O [n-phthaloyl-l-glutamic acid] | L (A Low initial pH corresponds to an initial pH being less than 5.5) | L (A Low initial pH corresponds to an initial pH being less than 5.5) | L (A Low initial pH corresponds to an initial pH being less than 5.5) | – | – | – | –
NCCc1c[nH]cn1 [Histamine] | H (a High initial pH corresponds to an initial pH being greater than 6.5) | H (a High initial pH corresponds to an initial pH being greater than 6.5) | H (a High initial pH corresponds to an initial pH being greater than 6.5) | – | – | – | –
N[C@H](CO)C(=O)O [D-Serine] | – | – | – | 0.06 | <1.00 | 0.03 | –
N[C@@H](CC(=O)O)C(=O)O [L-Aspartic Acid] | – | – | – | 1.36 | – | – | –
NCCCC(=O)O [DL-gamma-amino-n-butyric acid] | – | – | – | 0.836 | 246.6 | 1.86 | –
